In US5527810A, “Decahydroisoquinoline compounds as excitatory amino acid receptor antagonists” (Eli Lilly and Company, priority 1994, dated 1996):

What was measured:
kainic acid receptor = assay: Kainate receptor radioligand binding, displacement of [3H]KA (washed synaptosomal membranes from rat forebrain); details: [3H]kainate 5 nM, pH 7.4; mean ± standard error (n=3); 21.0 of compound 2 is a single experiment (footnote d)
Experimental: The formula I compounds were tested for their ability to inhibit NMDA, AMPA, and kainic acid receptor binding to rat membranes in a radioligand binding assay using [^3 H]CGS19755, [^3 H]AMPA, and [^3 H]KA. For all radioligand binding assays, male Sprague-Dawley rats were used. Displacement of the specific binding [^3 H]CGS19755 (10 nM) to Triton-X-treated synaptosomal membranes of rat forebrain was used to determine NMDA receptor affinity. Non-specific binding was determined using 10 μM L-glutamate. Samples were incubated in an ice-bath for 30 minutes, and bound ligand was separated from the free ligand by rapid filtration through WHATMAN GF/B glass fiber filters. Murphy et al, British J. Pharmacol., 95, 932-938 (1988). Kainate binding was performed using washed synaptosomal membranes from the rat forebrain as described by Simon et al. Simon et al, J. Neurochem., 26, 141-147 (1976). Tritiated kainate (5 nM) was added to 50 mM Tris-HCl buffer (pH 7.4 at 4° C.) containing 200-300 μg/ml of tissue protein. Samples were incubated for 30 minutes in an ice-bath, then rapidly filtered using a Brandel cell harvester and WHATS GF/C filters. Filters were washed twice with 3 ml of cold buffer. Non-specific binding was determined using 100 μM non-labeled kainate. […] Non-specific binding was determined with 10 μM non-labeled […]. […]

NMDA receptor [1] = assay: NMDA receptor radioligand binding, displacement of [3H]CGS19755 (rat forebrain synaptosomal membranes)
Experimental: (§1) The formula I compounds were tested for their ability to inhibit NMDA, AMPA, and kainic acid receptor binding to rat membranes in a radioligand binding assay using [^3 H]CGS19755, [^3 H]AMPA, and [^3 H]KA. For all radioligand binding assays, male Sprague-Dawley rats were used. Displacement of the specific binding [^3 H]CGS19755 (10 nM) to Triton-X-treated synaptosomal membranes of rat forebrain was used to determine NMDA receptor affinity. Non-specific binding was determined using 10 μM L-glutamate. Samples were incubated in an ice-bath for 30 minutes, and bound ligand was separated from the free ligand by rapid filtration through WHATMAN GF/B glass fiber filters. Murphy et al, British J. Pharmacol., 95, 932-938 (1988). Kainate binding was performed using washed synaptosomal membranes from the rat forebrain as described by Simon et al. Simon et al, J. Neurochem., 26, 141-147 (1976). Tritiated kainate (5 nM) was added to 50 mM Tris-HCl buffer (pH 7.4 at 4° C.) containing 200-300 μg/ml of tissue protein. Samples were incubated for 30 minutes in an ice-bath, then rapidly filtered using a Brandel cell harvester and WHATS GF/C filters. Filters were washed twice with 3 ml of cold buffer. Non-specific binding was determined using 100 μM non-labeled kainate. The binding of [^3 H]AMPA (5 nM) was conducted with crude membranes of rat forebrain in the presence of 100 mM KSCN as described by Nielson et al. Nielson et al, Eur. J. Med. Chem. Chem. Ther., 21, 433-437 (1986). Non-specific binding was determined with 10 μM non-labeled AHPA. The concentration of the formula I compound that inhibited 50% binding (IC50, mean ± standard error, n=3) as calculated by linear regression of displacement data transformed to the Hill equation as described by Bennett. Bennett, Neurotransmitter Receptor Binding, 57-90 (1978).

kainate (KA) receptor = assay: Antagonism of cortical wedge depolarization induced by kainate; assay type: cell-based, rat; details: kainate 10 μM; mean ± standard error (n=3); 15 min
Experimental: (§2) The depolarization of rat cortical wedges was used to test the selectivity and potency of the formula I compounds as AMPA and NTMDA antagonists using a technique similar to that described by Harrison and Simmonds. Harrison and Simmonds, Bri. J. Pharmacol., 84, 381-391 (1984). Generally, 4-ml aliquots of NMDA (40 μM), AMPA (40 μM), and kainate (10 μM) were superfused (2 ml/min.) on the grey matter at intervals of 15-20 minutes until stable responses were attained. The tissue was then exposed for 15 minutes to various concentrations of the formula I compounds before retesting the agonists. The IC50 values were calculated from linear regression of log dose-response curves, each point the mean of at least three observations on separate slices from more than one animal.

AMPA receptor [2] = assay: AMPA receptor radioligand binding, displacement of [3H]AMPA (crude membranes of rat forebrain)
Experimental: as §1

AMPA receptor [3] = assay: Antagonism of cortical wedge depolarization induced by AMPA; assay type: cell-based, rat; details: for IC50: AMPA 40 μM, mean ± standard error (n=3)
Experimental: as §2

NMDA receptor [4] = assay: Antagonism of cortical wedge depolarization induced by NMDA; assay type: cell-based, rat; details: for IC50: NMDA 40 μM, mean ± standard error (n=3)
Experimental: as §2

[5] = system: global and focal ischemic damage; details: in vivo; cited from earlier work
sound induced seizures = details: DBA/2 mice; cited from earlier work
focal cerebral ischemia [6] = details: cited from earlier work
focal cerebral ischemia [7] = details: cited from earlier work; remark: listed apart in the source
Huntington's Disease = details: in vivo; cited from earlier work
CNS ischemia = details: cited from earlier work
formalin model = details: cited from earlier work
[8] = system: warm water tail withdrawal; details: rhesus monkeys; cited from earlier work
global ischemia = details: in vivo; cited from earlier work
[9] = [3H]CGS19755 10 nM, mean ± standard error (n=3), 0.96 of compound 2 is a single experiment (footnote d), read-out: IC50 NMDA (receptor binding)
[10] = [3H]AMPA 5 nM, 100 mM KSCN, mean ± standard error (n=3), read-out: IC50 AMPA (receptor binding)

In the case of `O=C(O)[C@@H]1C[C@H]2C[C@@H](c3nn[nH]n3)CC[C@H]2CN1` (relative stereo) [Compound 1, (3SR, 4aRS, 6SR, 8aRS)-6-(1(2)H-Tetrazole-5-yl)decahydroisoquinoline-3-carboxylic Acid], the “IC50 KA (receptor binding)” value (kainic acid receptor) is reported as 31.84 ± 2.31 µM, the IC50 (NMDA receptor [1]; [9]) is reported as 1.56 ± 0.23 µM and the “IC50 KA (cortical wedge depolarization)” value (kainate (KA) receptor) is reported as > 100 µM. The IC50 (AMPA receptor [2]; [10]) was 12.8 ± 0.27 µM, the IC50 (AMPA receptor [3]) was 40.9 ± 5.2 µM and the IC50 (NMDA receptor [4]) was 7.5 ± 0.7 µM.
For `O=C(O)[C@@H]1C[C@H]2C[C@@H](c3nn[nH]n3)CC[C@H]2CN1` [Compound 2, (3S, 4aR, 6S, 8aR)-6-(1(2)H-Tetrazole-5-yl)decahydroisoquinoline-3-carboxylic Acid], the “IC50 KA (receptor binding)” value (kainic acid receptor) was 21.0 µM, the IC50 (NMDA receptor [1]; [9]) was 0.96 µM and the IC50 (NMDA receptor [1]; text summary of Table I, read-out: IC50 for displacement of [3H]CGS19755, summary statement) was < 10 µM. For the same molecule, the “IC50 KA (cortical wedge depolarization)” value (kainate (KA) receptor) was > 100 µM, the IC50 (AMPA receptor [2]; [10]) was 5.72 ± 0.89 µM and the IC50 (AMPA receptor [2]; text summary of Table I, read-out: IC50 for displacement of 3H-AMPA, summary statement) was < 10 µM. For the same molecule, the IC50 (AMPA receptor [3]) was 13.2 ± 2.4 µM, the AMPA receptor antagonism (AMPA receptor [3]; statement in words, Table II) was “AMPA and NMDA receptor antagonists” and the IC50 (NMDA receptor [4]) was 4.1 ± 0.3 µM. The NMDA receptor antagonism (NMDA receptor [4]; statement in words, Table II) was “AMPA and NMDA receptor antagonists”.
For `NS(=O)(=O)c1cccc2c1c([N+](=O)[O-])cc1nc(O)c(O)nc12` [NBQX, 2,3-dihydroxy-6-nitro-7-sulfamoylbenzo[f]quinoxaline], the “prevention of global and focal ischemic damage” value [5] is listed as “effective in preventing global and focal ischemic damage”.
For `C/C(=C\C(N)C(=O)O)CP(=O)(O)O` (stereo not shown) [CGP 37849], the “anticonvulsant against sound induced seizures” value (sound induced seizures) is given as “anticonvulsant”.
In the case of `C[C@]12N[C@H](Cc3ccccc31)c1ccccc12` [dizocilpine], the “protection in focal cerebral ischemia model in rats” value (focal cerebral ischemia [6]) is given as “provided protection” and the “protection in focal cerebral ischemia model in cats” value (focal cerebral ischemia [7]) is given as “provided protection”.
In the case of `O=C(O)[C@@H]1C[C@H]2C[C@@H](CP(=O)(O)O)CC[C@H]2CN1` (relative stereo) [LY274614], the “neuroprotection in animal model of Huntington's Disease” value (Huntington's Disease) is given as “neuroprotective”.
In the case of `O=C(O)[C@H]1C[C@@H](Cc2nn[nH]n2)CCN1` (relative stereo) [LY233053], the “protection in CNS ischemia model in rabbits” value (CNS ischemia) is given as “provided protection”.
In the case of `O=C(O)[C@H]1CN(C/C=C/P(=O)(O)O)CCN1` [D-(-)CPP-ene], the “anticonvulsant against sound induced seizures” value (sound induced seizures) is given as “anticonvulsant” and the “protection in focal cerebral ischemia model in cats” value (focal cerebral ischemia [7]) is given as “provided protection”.
In the case of `NC(CCCP(=O)(O)O)C(=O)O` (racemic) [DL-AP5], the “analgesic in mouse formalin model” value (formalin model) is given as “analgesic”.
For `O=C(O)[C@@H]1C[C@H](CP(=O)(O)O)CCN1` [CGS 19755], the “analgesic in warm water tail withdrawal procedure” value [8] is listed as “analgesic” and the “protection in focal cerebral ischemia model in rats” value (focal cerebral ischemia [6]) is listed as “provided protection”.
In the case of `CC1=NN=C(c2ccc(N)cc2)c2cc3c(cc2C1)OCO3` [GKYI 52466], the “neuroprotection in rat global ischemia models” value (global ischemia) is given as “effective neuroprotective agent”.
